# According to US6737383B1, “Herbicidal oxadiazolidines” (priority 1999, dated 2004):
# Columns and labels:
# [1] = tested on: velvetleaf; assay: Test B pre/postemergence velvetleaf; format: in vivo, Abutilon theophrasti
# Procedure, shortened: (§1)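 Test chemicals in a non-phytotoxic solvent mixture with surfactant were sprayed preemergence onto planted seeds and postemergence onto plants 2 to 18 cm tall (1- to 4-leaf stage). After twelve to sixteen days in a greenhouse, injury was visually rated against untreated controls from 0 (no effect) to 10 (complete control).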
# [2] = tested on: wheat; assay: Test B pre/postemergence wheat; format: in vivo, Triticum aestivum
# Procedure, shortened: as §1
# [3] = tested on: surinam grass; assay: Test B pre/postemergence surinam grass; format: in vivo, Brachiaria decumbens
# Procedure, shortened: as §1
# [4] = tested on: corn; assay: Test B pre/postemergence corn; format: in vivo, Zea mays
# Procedure, shortened: as §1
# [5] = tested on: blackgrass; assay: Test B pre/postemergence blackgrass; format: in vivo, Alopecurus myosuroides
# Procedure, shortened: as §1
# [6] = tested on: soybean; assay: Test B pre/postemergence soybean; format: in vivo, Glycine max
# Procedure, shortened: as §1
# [7] = tested on: crabgrass; assay: Test B pre/postemergence crabgrass; format: in vivo, Digitaria sanguinalis
# Procedure, shortened: as §1
# [8] = tested on: bedstraw; assay: Test B pre/postemergence bedstraw; format: in vivo, Galium aparine
# Procedure, shortened: as §1
# [9] = tested on: smallflower flatsedge; assay: Test B flood test smallflower flatsedge; format: in vivo, Cyperus difformis
# Procedure, shortened: (§2)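 Flood test on plants grown to the 2-leaf stage; treated plants kept in greenhouse twelve to sixteen days, then visually rated against controls on a 0 (no effect) to 10 (complete control) scale.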
# [10] = tested on: pigweed; assay: Test B pre/postemergence pigweed; format: in vivo, Amaranthus retroflexus
# Procedure, shortened: as §1
# [11] = tested on: rape; assay: Test B pre/postemergence rape; format: in vivo, Brassica napus
# Procedure, shortened: as §1
# [12] = tested on: wild oat; assay: Test B pre/postemergence wild oat; format: in vivo, Avena fatua
# Procedure, shortened: as §1
# [13] = tested on: sugar beet; assay: Test B pre/postemergence sugar beet; format: in vivo, Beta vulgaris
# Procedure, shortened: as §1
# [14] = tested on: duck salad; assay: Test B flood test duck salad; format: in vivo, Heteranthera limosa
# Procedure, shortened: as §2
# [15] = tested on: purple nutsedge; assay: Test B pre/postemergence purple nutsedge; format: in vivo, Cyperus rotundus
# Procedure, shortened: as §1
# [16] = tested on: rice; assay: Test B flood test rice; format: in vivo, Oryza sativa
# Procedure, shortened: as §2
# [17] = Postemergence, Rate 62 g/ha, scale 0 to 10, 0 is no effect, 10 is complete control
# [18] = Postemergence, Rate 125 g/ha, scale of 0 to 10 where 0 is no effect and 10 is complete control
# [19] = Postemergence, Rate 250 g/ha, scale of 0 to 10, 0 is no effect, 10 is complete control
# [20] = Postemergence, Rate 500 g/ha, scale of 0 to 10 where 0 is no effect and 10 is complete control
# [21] = Preemergence, Rate 62 g/ha, scale 0 to 10 (0 no effect, 10 complete control)
# [22] = Preemergence, Rate 125 g/ha, scale of 0 to 10 where 0 is no effect and 10 is complete control
# [23] = Preemergence, Rate 500 g/ha, scale of 0 to 10 where 0 is no effect and 10 is complete control
# [24] = Rate 62 g/ha, flood test species, Pre-emergence, visual evaluation after twelve to sixteen days
# [25] = Rate 125 g/ha, under heading Pre-emergence, flood test species, visual evaluation after twelve to sixteen days
# [26] = Rate 250 g/ha, Pre-emergence (flood test species), scale 0 to 10, 0 is no effect, 10 is complete control
# [27] = Rate 500 g/ha, Pre-emergence section of Table B, 0 to 10 scale (0 no effect, 10 complete control)
structure (smiles),measurement,setting,value
CC(C)N(C(=O)n1oc(=O)n(CC2=NOCCC2)c1=O)c1ccc(F)cc1 [Compound 601],"Plant response rating, Velvetleaf",[1]; [17],0
same,"Plant response rating, Velvetleaf",[1]; [18],0
same,Velvetleaf plant response rating,[1]; [19],0
same,"Plant response rating, Velvetleaf",[1]; [20],4
same,Velvetleaf plant response rating,[1]; [21],1
same,Velvetleaf plant response rating,[1]; [22],4
same,"Plant response rating, Velvetleaf",[1]; [23],7
same,"Plant response rating, Wheat",[2]; [17],0
same,"Plant response rating, Wheat",[2]; [18],0
same,Wheat plant response rating,[2]; [19],0
same,"Plant response rating, Wheat",[2]; [20],3
same,Wheat plant response rating,[2]; [21],0
same,Wheat plant response rating,[2]; [22],1
same,"Plant response rating, Wheat",[2]; [23],6
same,"Plant response rating, B. signalgrass",[3]; [17],0
same,"Plant response rating, B. signalgrass",[3]; [18],0
same,B. signalgrass plant response rating,[3]; [19],4
same,"Plant response rating, B. signalgrass",[3]; [20],7
same,B. signalgrass plant response rating,[3]; [21],3
same,B. signalgrass plant response rating,[3]; [22],7
same,"B. signalgrass plant response rating (0 to 10 scale, 0 is no effect, 10 is complete control)","[3]; Preemergence, Rate 250 g/ha",8
same,B. signalgrass plant response rating,[3]; [23],8
same,"Plant response rating, Corn",[4]; [17],0
same,"Plant response rating, Corn",[4]; [18],0
same,Corn plant response rating,[4]; [19],0
same,"Plant response rating, Corn",[4]; [20],0
same,Corn plant response rating,[4]; [21],0
same,Corn plant response rating,[4]; [22],0
same,Corn plant response rating (0 to 10 scale),"[4]; Preemergence, Rate 250 g/ha",0
same,"Plant response rating, Corn",[4]; [23],3
same,Blackgrass plant response rating,[5]; [19],7
same,"Plant response rating, Blackgrass",[5]; [20],8
same,Blackgrass plant response rating,[5]; [22],8
same,Blackgrass plant response rating (0 to 10 scale),"[5]; Preemergence, Rate 250 g/ha",8
same,Blackgrass plant response rating,[5]; [23],9
same,"Plant response rating, Soybean",[6]; [17],4
same,"Plant response rating, Soybean",[6]; [18],4
same,Soybean plant response rating,[6]; [19],5
same,"Plant response rating, Soybean",[6]; [20],6
same,Soybean plant response rating,[6]; [21],0
same,Soybean plant response rating,[6]; [22],0
same,"Plant response rating, Soybean",[6]; [23],1
same,"Plant response rating, Crabgrass",[7]; [17],3
same,"Plant response rating, Crabgrass",[7]; [18],4
same,Crabgrass plant response rating,[7]; [19],5
same,"Plant response rating, Crabgrass",[7]; [20],9
same,Crabgrass plant response rating,[7]; [21],6
same,Crabgrass plant response rating,[7]; [22],9
same,"Plant response rating, Crabgrass",[7]; [23],10
same,Bedstraw plant response rating,[8]; [19],3
same,"Plant response rating, Bedstraw",[8]; [20],8
same,Bedstraw plant response rating,[8]; [21],0
same,Bedstraw plant response rating,[8]; [22],0
same,Bedstraw plant response rating (0 to 10 scale),"[8]; Preemergence, Rate 250 g/ha",0
same,"Plant response rating, S. Flatsedge (0 to 10 scale, 0 is no effect, 10 is complete control)",[9]; [24],0
same,"S. Flatsedge plant response rating (0 to 10 scale, 0 is no effect, 10 is complete control)",[9]; [25],0
same,S. Flatsedge plant response rating,[9]; [26],0
same,S. Flatsedge plant response rating,[9]; [27],0
same,"Plant response rating, Redroot pigweed",[10]; [17],0
same,"Plant response rating, Redroot pigweed",[10]; [18],2
same,Redroot pigweed plant response rating,[10]; [19],2
same,"Plant response rating, Redroot pigweed",[10]; [20],4
same,Redroot pigweed plant response rating,[10]; [21],4
same,Redroot pigweed plant response rating,[10]; [22],10
same,"Plant response rating, Redroot pigweed",[10]; [23],10
same,"Plant response rating, Rape",[11]; [17],0
same,"Plant response rating, Rape",[11]; [18],0
same,Rape plant response rating,[11]; [19],0
same,"Plant response rating, Rape",[11]; [20],0
same,Rape plant response rating,[11]; [21],0
same,Rape plant response rating,[11]; [22],0
same,"Plant response rating, Rape",[11]; [23],5
same,"Plant response rating, Wild oats",[12]; [17],0
same,"Plant response rating, Wild oats",[12]; [18],0
same,Wild oats plant response rating,[12]; [19],0
same,"Plant response rating, Wild oats",[12]; [20],0
same,Wild oats plant response rating,[12]; [21],3
same,Wild oats plant response rating,[12]; [22],8
same,"Plant response rating, Wild oats",[12]; [23],8
same,"Plant response rating, Sugarbeets",[13]; [17],0
same,"Plant response rating, Sugarbeets",[13]; [18],0
same,Sugarbeets plant response rating,[13]; [19],0
same,"Plant response rating, Sugarbeets",[13]; [20],0
same,Sugarbeets plant response rating,[13]; [21],0
same,Sugarbeets plant response rating,[13]; [22],4
same,"Plant response rating, Sugarbeets",[13]; [23],5
same,"Plant response rating, Ducksalad (0 to 10 scale, 0 is no effect, 10 is complete control)",[14]; [24],0
same,"Ducksalad plant response rating (0 to 10 scale, 0 is no effect, 10 is complete control)",[14]; [25],0
same,Ducksalad plant response rating,[14]; [26],0
same,Ducksalad plant response rating,[14]; [27],0
same,"Plant response rating, Nutsedge",[15]; [17],0
same,"Plant response rating, Nutsedge",[15]; [18],0
same,Nutsedge plant response rating,[15]; [19],0
same,"Plant response rating, Nutsedge",[15]; [20],0
same,Nutsedge plant response rating,[15]; [21],0
same,Nutsedge plant response rating,[15]; [22],0
same,"Plant response rating, Rice (0 to 10 scale, 0 is no effect, 10 is complete control)",[16]; [24],0
same,"Rice plant response rating (0 to 10 scale, 0 is no effect, 10 is complete control)",[16]; [25],0
same,Rice plant response rating,[16]; [26],0
same,Rice plant response rating,[16]; [27],0
